Columns and labels:
Experiment in all cases: 3H-thymidine assay
Type in all cases: cell-based
[1] = test system: Tp 483 MG glioblastoma cells
[2] = test system: Tp 410 N neuroblastoma cells; conditions: Homo sapiens, Neuroblastoma cell
[3] = test system: Daudi leukemic cells; conditions: Homo sapiens
[4] = test system: At T 20; conditions: Mus musculus, AtT20
Summary of the method: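 In this antiproliferative test, AtT20 cells were plated at 10^4 per well in 24-well plates and, once roughly half-confluent after approximately 48 hours, switched to medium containing compound. After two ice-cold PBS washes, incorporated label was precipitated with 5% trichloroacetic acid (one hour, 4° C), dissolved in 0.3M NaOH and measured. Thymidine insertion was compared with untreated controls to estimate growth inhibition.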

[5] = test system: CAKI-1 cells; conditions: Homo sapiens, CAKI-1
Summary of the method: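 Antiproliferative activity against CAKI-1 cells was measured by 3H-thymidine incorporation. After washing in PBS, precipitated radioactivity was solubilized in 0.3M NaOH and counted. Incorporation in substance-treated cells was compared with untreated controls to assess growth inhibition, and the substance concentration giving 50% inhibition of 3H-thymidine insertion was found.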

[6] = test system: K-562 leukemic cells; conditions: Homo sapiens, K562
Summary of the method: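 K562 human leukemic cells were inoculated into 24-well plates (10^4 cells/well) and allowed roughly 48 hours to reach half-confluence, after which the medium was swapped for one containing the test agent. Cultures were washed twice in cold PBS, acid-precipitable 3H-radioactivity was fixed with 5% trichloroacetic acid at 4° C for one hour, solubilized in 0.3M NaOH and counted; inhibition was derived relative to untreated cells.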

[7] = test system: MCF-7 breast cancer cells; conditions: Homo sapiens, MCF7
Summary of the method: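 MCF-7 cells were plated at 10^4 cells per well in 24-well plates and, once roughly half-confluent after approximately 48 hours, exposed to compound-containing medium. Growth inhibition was assessed from 3H-thymidine insertion relative to untreated controls: cultures were washed twice in ice-cold PBS, acid-insoluble label was precipitated with 5% trichloroacetic acid (one hour, 4° C), dissolved in 0.3M NaOH and counted. The concentration giving 50% inhibition of insertion was determined.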

[8] = test system: HCV cells
[9] = test system: Z-R-75-1 breast cancer cells; conditions: Homo sapiens, ZR-75-1
[10] = test system: G-361 melanoma cells; conditions: Homo sapiens, G-361
[11] = 1 μM/ml, read-out: 3H-thymidine insertion (%) of control
[12] = 2 μM/ml, read-out: 3H-thymidine insertion (%) of control
[13] = 4 μM/ml, read-out: 3H-thymidine insertion (%) of control
[14] = 8 μM/ml, read-out: 3H-thymidine insertion (%) of control
[15] = 16 μM/ml, read-out: 3H-thymidine insertion (%) of control
[16] = 25 μM/ml, read-out: 3H-thymidine insertion (%) of control
[17] = 50 μM/ml, read-out: 3H-thymidine insertion (%) of control
[18] = 100 μM/ml, read-out: 3H-thymidine insertion (%) of control
[19] = 250 μM/ml, read-out: 3H-thymidine insertion (%) of control
[20] = 500 μM/ml, read-out: 3H-thymidine insertion (%) of control
[21] = Table 4, read-out: active substance concentration at which 3H-thymidine insertion was 50% inhibited
[22] = 1 μM/ml, read-out: 3H-thymidine tracer (%) of control
[23] = 2 μM/ml, read-out: 3H-thymidine tracer (%) of control
[24] = 4 μM/ml, read-out: 3H-thymidine tracer (%) of control
[25] = 8 μM/ml, read-out: 3H-thymidine tracer (%) of control
[26] = 16 μM/ml, read-out: 3H-thymidine tracer (%) of control
[27] = 25 μM/ml, read-out: 3H-thymidine tracer (%) of control
[28] = 50 μM/ml, read-out: 3H-thymidine tracer (%) of control
[29] = 100 μM/ml, read-out: 3H-thymidine tracer (%) of control
[30] = 250 μM/ml, read-out: 3H-thymidine tracer (%) of control
[31] = 500 μM/ml, read-out: 3H-thymidine tracer (%) of control
[32] = Table 4, *: maximum usable dosage, no 50% inhibition, read-out: active substance concentration at which 3H-thymidine insertion was 50% inhibited

- IC50 [1, 21]: 500 µM
- IC50 [2, 21]: 500 µM
- IC50 [3, 21]: 250 µM
- IC50 [4, 21]: 250 µM
- IC50 [5, 32]: > 500 µM
- IC50 [6, 21]: 175 µM
- IC50 [7, 32]: > 500 µM
- IC50 [8, 32]: > 500 µM
- IC50 [9, 32]: > 500 µM
- IC50 [10, 32]: > 500 µM
Structure (SMILES): COc1cc2ccc(=O)oc2cc1O [Scopoletin, 6-methoxy-7-hydroxy-1,2-benzopyrone]
- activity at 1 µM [1, 11]: 100%
- activity at 2 µM [1, 12]: 95%
- activity at 4 µM [1, 13]: 89%
- activity at 8 µM [1, 14]: 86%
- activity at 16 µM [1, 15]: 78%
- activity at 25 µM [1, 16]: 72%
- activity at 50 µM [1, 17]: 67%
- activity at 100 µM [1, 18]: 63%
- activity at 250 µM [1, 19]: 54%
- activity at 500 µM [1, 20]: 50%
- activity at 1 µM [2, 11]: 100%
- activity at 2 µM [2, 12]: 98%
- activity at 4 µM [2, 13]: 95%
- activity at 8 µM [2, 14]: 87%
- activity at 16 µM [2, 15]: 82%
- activity at 25 µM [2, 16]: 74%
- activity at 50 µM [2, 17]: 71%
- activity at 100 µM [2, 18]: 65%
- activity at 250 µM [2, 19]: 62%
- activity at 500 µM [2, 20]: 54%
- activity at 1 µM [3, 22]: 96%
- activity at 2 µM [3, 23]: 94%
- activity at 4 µM [3, 24]: 80%
- activity at 8 µM [3, 25]: 79%
- activity at 16 µM [3, 26]: 71%
- activity at 25 µM [3, 27]: 64%
- activity at 50 µM [3, 28]: 58%
- activity at 100 µM [3, 29]: 53%
- activity at 250 µM [3, 30]: 49%
- activity at 500 µM [3, 31]: 41%
- activity at 1 µM [4, 22]: 98%
- activity at 2 µM [4, 23]: 94%
- activity at 4 µM [4, 24]: 89%
- activity at 8 µM [4, 25]: 84%
- activity at 16 µM [4, 26]: 76%
- activity at 25 µM [4, 27]: 68%
- activity at 50 µM [4, 28]: 62%
- activity at 100 µM [4, 29]: 57%
- activity at 250 µM [4, 30]: 49%
- activity at 500 µM [4, 31]: 43%
- activity at 1 µM [5, 22]: 100%
- activity at 2 µM [5, 23]: 98%
- activity at 4 µM [5, 24]: 87%
- activity at 8 µM [5, 25]: 81%
- activity at 16 µM [5, 26]: 80%
- activity at 25 µM [5, 27]: 73%
- activity at 50 µM [5, 28]: 69%
- activity at 100 µM [5, 29]: 67%
- activity at 150 µM ([5]; 150 μM/ml, read-out: 3H-thymidine tracer (%) of control): 62%
- activity at 500 µM [5, 31]: 55%
- activity at 1 µM [6, 22]: 100%
- activity at 2 µM [6, 23]: 97%
- activity at 4 µM [6, 24]: 90%
- activity at 8 µM [6, 25]: 85%
- activity at 16 µM [6, 26]: 82%
- activity at 25 µM [6, 27]: 71%
- activity at 50 µM [6, 28]: 66%
- activity at 100 µM [6, 29]: 52%
- activity at 250 µM [6, 30]: 47%
- activity at 500 µM [6, 31]: 44%
- activity at 1 µM [7, 22]: 100%
- activity at 2 µM [7, 23]: 97%
- activity at 4 µM [7, 24]: 94%
- activity at 8 µM [7, 25]: 86%
- activity at 16 µM [7, 26]: 81%
- activity at 25 µM [7, 27]: 76%
- activity at 50 µM [7, 28]: 73%
- activity at 100 µM [7, 29]: 69%
- activity at 250 µM [7, 30]: 62%
- activity at 500 µM [7, 31]: 54%
- activity at 1 µM [8, 22]: 97%
- activity at 2 µM [8, 23]: 90%
- activity at 4 µM [8, 24]: 86%
- activity at 8 µM [8, 25]: 81%
- activity at 16 µM [8, 26]: 77%
- activity at 25 µM [8, 27]: 69%
- activity at 50 µM [8, 28]: 65%
- activity at 250 µM [8, 30]: 60%
- activity at 500 µM [8, 31]: 57%
- activity at 1 µM [9, 22]: 98%
- activity at 2 µM [9, 23]: 96%
- activity at 4 µM [9, 24]: 91%
- activity at 8 µM [9, 25]: 83%
- activity at 16 µM [9, 26]: 79%
- activity at 25 µM [9, 27]: 72%
- activity at 50 µM [9, 28]: 64%
- activity at 100 µM [9, 29]: 57%
- activity at 250 µM [9, 30]: 55%
- activity at 500 µM [9, 31]: 50%
- activity at 1 µM [10, 22]: 100%
- activity at 2 µM [10, 23]: 98%
- activity at 4 µM [10, 24]: 96%
- activity at 8 µM [10, 25]: 88%
- activity at 25 µM [10, 27]: 85%
- activity at 50 µM [10, 28]: 85%
- activity at 100 µM [10, 29]: 76%
- activity at 250 µM [10, 30]: 71%
- activity at 500 µM [10, 31]: 67%

Source: patent US5525626A (priority 1989, dated 1996)
